The results in this text go back to the supplement of paper PMC10307832.

Test in all cases: relative viability (nuclei count vs DMSO), 5 days (fraction); higher = more cells survive
Compound in assay [1]: C1CNCCC1C2=CC(=NN2)C3=CC=NC=C3
In short, it runs like this: (§1)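 Vehicle-anchored 1536-well plates of lung cancer cell lines, held overnight at 37 °C, were pinned with five library-drug doses (not always all listed) spaced by √10. No medium change followed over the next 5 days, after which the cells were fixed, permeabilised and Hoechst-stained together and imaged at 4×. Nuclei were counted with MetaXpress, and viability is treated-well nuclei over vehicle-well nuclei, taken as a median across plates. Plates passed with control CV below 25% and at least one doubling.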

Compound in assay [2]: C[C@@H](N)c1ccc(C(=O)Nc2ccnc3[nH]ccc23)cc1
An outline of the steps:
as §1

Compound in assay [3]: O[C@H]1CC[C@H](Nc2ncc3nc(Nc4c(F)cc(F)cc4F)n([C@H]4CCOC4)c3n2)CC1 [Tanzisertib]
An outline of the steps:
as §1

Compound in assay [4]: C1CNCCC1C2=CC(=NN2)C3=CC=NC=C3 + Cc1nc(NC(=O)N2CCC[C@H]2C(N)=O)sc1-c1ccnc(C(C)(C)C(F)(F)F)c1 [Alpelisib] (partner 2 µM)
An outline of the steps:
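Values are medians from duplicate plates. Each reflects relative viability, defined as the nuclei count of treated wells over that of vehicle wells. Lung cancer cell lines in 1536-well plates were pin-tool dosed one day after seeding with one drug alone or with a fixed anchor-drug dose plus five library-drug doses (not always all listed) in √10 steps, then fixed, stained and imaged at 4× after 5 days.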

On to UMC-11, for which the relative viability is 0.862 in assay [1] (0.08 µM); 1.16 in assay [1] (0.8 µM); 1.01 in assay [1] (2.53 µM); 0.992 in assay [1] (8 µM); 0.954 in assay [2] (0.04 µM); 1.07 in assay [2] (0.1265 µM). Besides, the relative viability came out at 1.16 in assay [2] (0.4 µM); 0.712 in assay [2] (1.265 µM); 0.784 in assay [2] (4 µM); 1.09 in assay [3] (0.08 µM); 0.973 in assay [3] (0.253 µM); 1.01 in assay [3] (0.8 µM). Moreover, the relative viability in assay [3] (2.53 µM) was found to be 0.987; in assay [3] (8 µM) it was 1.01; in assay [4] (first compound 0.08 µM), 0.815; in assay [4] (first compound 0.8 µM), 1.22; in assay [4] (first compound 2.53 µM), 0.911; in assay [4] (first compound 8 µM) it was 1.03.
